Laboratory results published in the supplement of paper PMC11061612.

Key:
Experiment in all cases: combination Emax (second highest fraction inhibited in the dose matrix, 72 h); higher = more inhibition; extreme values may be limits of the assay
[1] = tested on: KCL-22 (Chronic Myelogenous Leukemia)
Outline: (§1)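 Cell lines grown in DMEM/F12 or RPMI with 10% FBS were plated in 1536-well plates and held 24 hours at 37°C, 5% CO2 before 72 hours of exposure to two-drug dose matrices, with DMSO typically at 0.2%. CellTiter-Glo 2.0 luminescence gave viability, which was converted to inhibition. Vehicle wells were set to 0 and blank wells to 1. Combination Emax is the second-highest inhibition in the matrix, and Bliss excess is the observed combination effect minus the expected EA + EB − EA·EB, where EA and EB are the single-agent effects.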

[2] = tested on: P12-ICHIKAWA (T-Lymphoblastic Leukemia)
Outline: as §1

[3] = tested on: MFM-223 (Breast Carcinoma)
Outline: as §1

[4] = tested on: PANC-08-13 (Pancreatic Carcinoma)
Outline: as §1

[5] = tested on: MOLT-16 (T-Lymphoblastic Leukemia)
Outline: as §1

NCI-H2818 (Mesothelioma) = tested on: NCI-H2818 (Mesothelioma)
Outline: as §1

[6] = tested on: TOV-112D (Ovarian Carcinoma)
Outline: as §1

[7] = tested on: K-562 (Chronic Myelogenous Leukemia)
Outline: as §1

[8] = tested on: GR-ST (B-Lymphoblastic Leukemia)
Outline: as §1

U251 (Low Grade Glioma) = tested on: U251 (Low Grade Glioma)
Outline: as §1

[9] = tested on: HL-60 (Acute Myeloid Leukemia)
Outline: as §1

[10] = tested on: BFTC-905 (Bladder Carcinoma)
Outline: as §1

[11] = tested on: NCI-H1792 (Lung Adenocarcinoma)
Outline: as §1

[12] = tested on: HDQ-P1 (Breast Carcinoma)
Outline: as §1

[13] = tested on: SW837 (Colorectal Carcinoma)
Outline: as §1

[14] = tested on: CAMA-1 (Breast Carcinoma)
Outline: as §1

ES8 (Ewing's Sarcoma) = tested on: ES8 (Ewing's Sarcoma)
Outline: as §1

[15] = tested on: MKN28 (Gastric Carcinoma)
Outline: as §1

[16] = tested on: SW1417 (Colorectal Carcinoma)
Outline: as §1

CHP-212 (Neuroblastoma) = tested on: CHP-212 (Neuroblastoma)
Outline: as §1

Row | Compound | combination Emax [1] | combination Emax [2] | combination Emax [3] | combination Emax [4] | combination Emax [5] | combination Emax (NCI-H2818 (Mesothelioma)) | combination Emax [6] | combination Emax [7] | combination Emax [8] | combination Emax (U251 (Low Grade Glioma)) | combination Emax [9] | combination Emax [10] | combination Emax [11] | combination Emax [12] | combination Emax [13] | combination Emax [14] | combination Emax (ES8 (Ewing's Sarcoma)) | combination Emax [15] | combination Emax [16] | combination Emax (CHP-212 (Neuroblastoma))
1 | Cc1c2c(nn1C)CSCc1cc(n(C)n1)CSc1cc(c3ccccc3c1)OCCCc1c(C(=O)O)n(C)c3c-2c(Cl)ccc13 [AZD5991] + C1CN(CCC1(C(=O)N[C@@H](CCO)C2=CC=C(C=C2)Cl)N)C3=NC=NC4=C3C=CN4 [Capivasertib] (first compound max 1 µM, 7x7, partner max 3 µM) | 0.981 | 1 | 0.788 | 0.15 | 1 | 0.258 | 0.407 | 0.374 | 0.38 | 0.224 | 1 | 0.206 | 0.302 | 0.232 | 0.121 | 0.994 | 0.679 | 0.12 | 0.208 | 
2 | COc1nnc2ccc(N3CCC(c4ccc(OCCN5CCN(C)C(=O)[C@H]5C)cc4)CC3)nn12 [AZD5153] + CN(CC[C@H](CSC1=CC=CC=C1)NC2=C(C=C(C=C2)S(=O)(=O)NC(=O)C3=CC=C(C=C3)N4CCC(CC4)[C@H](C5=CC=CC=C5C6=CC=C(C=C6)Cl)O)S(=O)(=O)C(F)(F)F)CCO [AZD4320] (first compound max 1 µM, 7x7, partner max 1 µM) | 0.963 | 1 | 0.544 | 0.876 | 1 |  | 0.664 |  |  | 0.505 | 0.994 |  |  | 0.967 |  |  |  |  |  | 0.896
3 | CN(CCO)CC[C@H](CSc1ccccc1)Nc1ccc(S(=O)(=O)NC(=O)c2ccc(N3CCC([C@@H](O)c4ccccc4-c4ccc(Cl)cc4)CC3)cc2)cc1S(=O)(=O)C(F)(F)F [AZD4320] + Cn1cnc2c(F)c(Nc3ccc(Br)cc3Cl)c(C(=O)NOCCO)cc21 [Selumetinib] (first compound max 1 µM, 7x7, partner max 3 µM) | 0.557 | 1 |  | 0.528 | 1 | 0.31 | 0.248 | 0.516 | 0.494 | 0.651 | 0.994 | 0.825 | 0.369 | 0.771 | 0.489 | 0.468 | 0.99 | 0.356 | 0.935 | 0.925
4 | COc1cc2c(cc1OCCCCCOc1cc3c(cc1OC)C(=O)N1C=C(C)C[C@H]1C=N3)N=C[C@@H]1CC(C)=CN1C2=O [SG3199] + O=C(c1cc(Cc2n[nH]c(=O)c3ccccc23)ccc1F)N1CCN(C(=O)C2CC2)CC1 [Olaparib] (first compound max 0.001 µM, 7x7, partner max 10 µM) | 0.176 |  | 0.128 | 0.101 | 0.659 | 0.161 | 0.269 | 0.134 | 0.359 | 0.183 | 0.133 | 0.152 | 0.144 | 0.153 | 0.0782 | 0.109 | 0.828 | 0.0709 | 0.0642 | 0.384
5 | CN(C)CCCOc1ccc(-c2ccc3ncc4c(c3c2)n(C2CCOCC2)c(=O)n4C)cn1 [AZD0156] + C=CCn1c(=O)c2cnc(Nc3ccc(N4CCN(C)CC4)cc3)nc2n1-c1cccc(C(C)(C)O)n1 [AZD1775] (first compound max 1 µM, partner max 1 µM) | 0.895 |  | 0.653 | 0.247 | 1 | 0.327 | 0.475 | 0.715 | 0.78 | 0.398 | 0.387 | 0.517 | 0.643 | 0.469 | 0.237 | 0.104 | 0.646 | 0.481 | 0.407 | 0.831
6 | COc1cccc(OCCCN)c1-c1cc(Nc2cnc(C#N)cn2)n[nH]1 [Prexasertib] + C[C@@H]1COCCN1C2=NC(=NC(=C2)C3(CC3)[S@](=N)(=O)C)C4=C5C=CNC5=NC=C4 [AZD6738] (first compound max 1 µM, 7x7, partner max 10 µM) | 0.999 |  | 0.814 | 0.49 | 1 | 0.387 | 0.796 | 0.985 | 0.829 | 0.652 | 0.971 | 0.917 | 0.832 | 0.597 | 0.752 | 0.417 | 0.798 | 0.597 | 0.629 | 0.788
7 | CCN(CCO)CCCOc1ccc2c(Nc3cc(CC(=O)Nc4cccc(F)c4)[nH]n3)ncnc2c1 [AZD2811] + O=C(c1cc(Cc2n[nH]c(=O)c3ccccc23)ccc1F)N1CCN(C(=O)C2CC2)CC1 [Olaparib] (first compound max 1 µM, 7x7, partner max 10 µM) | 0.417 |  | 0.274 | 0.166 | 1 | 0.234 | 0.394 | 0.366 | 0.448 | 0.273 | 0.83 | 0.502 | 0.175 | 0.264 | 0.183 | 0.206 | 0.997 | 0.238 | 0.109 | 0.771
8 | COc1cccc(OCCCN)c1-c1cc(Nc2cnc(C#N)cn2)n[nH]1 [Prexasertib] + O=C(c1cc(Cc2n[nH]c(=O)c3ccccc23)ccc1F)N1CCN(C(=O)C2CC2)CC1 [Olaparib] (first compound max 1 µM, 7x7, partner max 10 µM) | 0.953 |  | 0.703 | 0.536 | 1 | 0.285 | 0.796 | 0.891 | 0.808 | 0.733 | 0.961 | 0.848 | 0.84 | 0.702 | 0.645 | 0.37 | 0.906 | 0.46 | 0.614 | 0.756
9 | C=CCn1c(=O)c2cnc(Nc3ccc(N4CCN(C)CC4)cc3)nc2n1-c1cccc(C(C)(C)O)n1 [AZD1775] + C[C@@H]1COCCN1C2=NC(=NC(=C2)C3(CC3)[S@](=N)(=O)C)C4=C5C=CNC5=NC=C4 [AZD6738] (first compound max 1 µM, partner max 10 µM) | 1 |  | 0.897 | 0.373 | 1 | 0.475 | 0.764 | 0.934 | 0.78 | 0.773 | 0.893 | 0.964 | 0.866 | 0.76 | 0.636 | 0.46 | 0.905 | 0.695 | 0.655 | 0.823
10 | COc1cccc(OCCCN)c1-c1cc(Nc2cnc(C#N)cn2)n[nH]1 [Prexasertib] + Cc1cc2ncnn2cc1Nc1ncc2c(n1)n(C1CCOCC1)c(=O)n2C [AZD7648] (first compound max 1 µM, 7x7, partner max 10 µM) | 1 |  | 0.763 | 0.587 | 1 | 0.344 | 0.711 | 0.948 | 0.806 | 0.622 | 0.961 | 0.856 | 0.87 | 0.612 | 0.749 | 0.384 | 0.842 | 0.575 | 0.667 | 0.814
11 | COc1cccc2c1C(=O)c1c(O)c3c(c(O)c1C2=O)C[C@@](O)(C(=O)CO)C[C@@H]3O[C@H]1C[C@H](N)[C@H](O)[C@H](C)O1 [Doxorubicin] + Cc1cc2ncnn2cc1Nc1ncc2c(n1)n(C1CCOCC1)c(=O)n2C [AZD7648] (first compound max 1 µM, 7x7, partner max 10 µM) | 0.932 |  | 0.671 | 0.182 | 1 | 0.694 | 0.926 | 0.823 | 0.69 | 0.859 | 0.994 | 0.974 | 0.923 | 0.682 | 0.516 | 0.469 | 0.935 | 0.503 | 0.432 | 0.782
12 | CN(CCO)CC[C@H](CSc1ccccc1)Nc1ccc(S(=O)(=O)NC(=O)c2ccc(N3CCC([C@@H](O)c4ccccc4-c4ccc(Cl)cc4)CC3)cc2)cc1S(=O)(=O)C(F)(F)F [AZD4320] + C[C@@H](Nc1cc(F)cc(F)c1)c1cc(C(=O)N(C)C)cc2c(=O)cc(N3CCOCC3)oc12 [AZD8186] (first compound max 1 µM, 7x7, partner max 3 µM) | 0.33 | 1 |  | 0.481 | 1 | 0.365 | 0.205 | 0.313 | 0.537 | 0.635 | 0.958 | 0.851 | 0.323 | 0.787 | 0.395 | 0.84 | 0.99 | 0.263 | 0.707 | 0.752
13 | CCc1c2c(nc3ccc(O)cc13)-c1cc3c(c(=O)n1C2)COC(=O)[C@]3(O)CC [SN-38] + CN(C)CCCOc1ccc(-c2ccc3ncc4c(c3c2)n(C2CCOCC2)c(=O)n4C)cn1 [AZD0156] (first compound max 0.3 µM, 7x7, partner max 1 µM) | 0.921 |  | 0.243 | 0.131 | 1 | 0.499 | 0.965 | 0.752 | 0.749 | 0.897 | 0.968 | 0.957 | 0.757 | 0.702 | 0.343 | 0.208 | 0.984 | 0.451 | 0.662 | 0.747
